In patent US6706839B1, “Chemical partitioning agents and methods of using same” (University of Pittsburgh, priority 1999, dated 2004):

Experiment: Solubility of stilbene precipiton isomers in organic solvents (qualitative observations)
Type: physicochemical
Settings: for solubility in THF: reaction solvent of the Z to E isomerization
Protocol: When a solution of (Z)-stilbene (51Z or 52Z) in THF was heated to reflux at 80-90° C. in the presence of Ph2S2 (0.2 equiv) for several hours, the Z to E isomerization occurred smoothly. The reaction was followed by ^1H NMR (either vinylic protons or NMe2 (51Z), OMe (52Z)). As the reaction proceeded, solid precipitate came out of the solution. […] The E-isomer was obtained pure in a 44% (51E) and 79% (52E) yield, respectively without any contamination of either Z-isomer or Ph2S2. […] In high-boiling solvents such as toluene and p-dioxane, the isomerization was faster than in THF and the reaction was completed in less than 3 h (Table 32). A second catalytic method for isomerization/precipitation employs iodine and a radical initiator, for example dibenzoylperoxide. Irradiation of the cis-alkenes in the presence of 1-50 mol % iodine and 0.1-25 mol % dibenzoylperoxide affords clean isomerization of the cis to trans alkene.
(2-Naphthalenylmethyl)triphenylphosphonium bromide ((a) Tinnemans, A. H. A.; Laarhoven, W. H. J. Chem. Soc. Perkin. Trans. 2, 1976, 1104-1111. (b) Zelikovich, L.; Hoffman, R. E.; Ayalon, A.; Rabinovitz, M. J. Chem. Soc. Perkin. Trans. 2, 1992, 1785-1792) was treated with NaH in DMF to generate a corresponding ylide. A solution of 4-methoxy-1-naphthaldehyde in DMF was added and stirred at 35-50° C. for 2 h at to give 1,2-naphthylstilbene 53 in 51% yield (53Z:53E=1:1.2). 6-Methoxy-2-naphthaldehyde ((a) Harvey, R. G.; Cortez, C.; Sawyer, T. W.; DiGiovanni, J.; J. Med. Chem. 1988, 31, 1308-1312. (b) Harvey, R. G.; Cortez, C. Tetrahedron, 1997, 53, 7101-7118) was prepared by formylation (Beringer, F. M.; Nathan, R. A. J. Org. Chem. 1969, 34, 685-689) of 6-methoxy-2-bromonaphthalene in 53% yield. When (2-naphthalenylmethyl)-triphenylphosphonium bromide was reacted with 6-methoxy-2-naphthaldehyde in a similar manner as 1,2-naphthylstilbene, (Z)-2,2-naphthylstilbene 54Z was prepared in 39% isolated yield. […]

solubility in THF	solubility in Et2O, compared with 52E (Et2O, trituration solvent, relative to 52E)	Structure (SMILES)
partially soluble		COc1ccc(/C=C/c2ccc(-c3ccccc3)cc2)cc1 [52E]
partially soluble	bigger solubility	CN(C)c1ccc(/C=C/c2ccc(Br)cc2)cc1 [51E]
